Test results from patent US20210163471A1, “PROGRANULIN MODULATORS AND METHODS OF USING THE SAME” (ARKUDA THERAPEUTICS, priority 2017, published 2021).
Read-outs that look alike come from different tables or passages of the source.

Tested on: BV-2 (mouse microglia) cells
Assay: progranulin secretion from BV-2 cells, mouse progranulin ELISA of conditioned media
Type: cell-based
Details: for EC50: BV-2 cells, 16 hours incubation, 8-point curves starting at 10 μM
Protocol: BV-2 cells are split the day before plating into a 96 well plate format at approximately 80%. Cells should be plated the day before and allowed for 1 hour attachment period and for 16 hour incubation. […] Standard ELISA kits to measure PGRN are available from vendors such as Adipogen, R&D, and Biovendor.
Compound potency was determined by measuring progranulin secretion from BV-2 (mouse microglia) cells. BV-2 cells were grown in RPMI with 2 mM L-glutamine supplemented with 10% fetal bovine serum. On the day of the assay, cells were plated in 96-well plates at a density of 30,000 cells/well in RPMI (Roswell Park Memorial Institute media)/L-glutamine supplemented with 2% Fetal clone serum II (plating media) and left to adhere for 1 hour. Following attachment to the plate, media was replaced with treatment (8-point curves in half-log dilutions starting at 10 μM) in plating media and incubated for 16 hours. Secreted progranulin was measured from a 1:10 dilution of the conditioned media using the R&D Systems mouse progranulin ELISA kit (cat #DY2557) and following the manufacturer's instructions.

[1] = Mus musculus, BV-2, 16 h, assay run v1, read-out: PRGN v1 (EC50, progranulin secretion)
[2] = Mus musculus, BV-2, 16 h, assay run v2 (same protocol, different assay), read-out: PRGN v2 (EC50, progranulin secretion)
[3] = Mus musculus, assay run v2 (same protocol, different assay), read-out: PRGN v2 (EC50, progranulin secretion)
[4] = assay run v2 (same protocol, different assay), read-out: PRGN v2 (EC50, progranulin secretion)

Row | Compound | EC50 [2] [µM] | EC50 [3] [µM] | further results
1 | O=C(N[C@@H]1CN2CCC1CC2)N1CCc2cccnc2[C@H]1c1ccc(Cl)cc1 [Compound 1122] | > 10 | – | EC50 [1]: 3.13 µM
2 | CS(=O)(=O)N1CC([C@H]2c3ccccc3CCN2C(=O)N[C@@H]2CN3CCC2CC3)C1 [Compound 1123] | > 10 | – | EC50 [1]: > 10 µM
3 | CS(=O)(=O)N1CC([C@@H]2c3ccccc3CCN2C(=O)N[C@@H]2CN3CCC2CC3)C1 [Compound 1124] | > 10 | – | EC50 [1]: > 10 µM
4 | O=C(Cc1ccccc1)N1CCc2ccccc2[C@@H]1c1ccc(F)cc1 [Compound 1125, (S)-1-(1-(4-fluorophenyl)-3,4-dihydroisoquinolin-2(1H)-yl)-2-phenylethanone] | > 10 | – | –
5 | O=C(O[C@@H]1CN2CCC1CC2)N1CCc2ccccc2[C@@H]1c1ccc(C(F)(F)F)cc1 [Compound 1126] | – | 8.6 | –
6 | O=C(O[C@@H]1CN2CCC1CC2)N1CCc2ccccc2[C@H]1c1ccc(C(F)(F)F)cc1 [Compound 1127] | – | > 10 | –
7 | O=C(O[C@@H]1CN2CCC1CC2)N1CCc2ccccc2[C@@H]1c1ccc(OC(F)(F)F)cc1 [Compound 1128] | – | 2.6 | –
8 | O=C(O[C@@H]1CN2CCC1CC2)N1CCc2ccccc2[C@H]1c1ccc(OC(F)(F)F)cc1 [Compound 1129] | – | 4.35 | –
9 | CN(C(=O)N1CCc2ccccc2[C@@H]1c1ccc(F)cc1)[C@@H]1CN2CCC1CC2 [Compound 1130] | 1.03 | – | –
10 | CN(C(=O)N1CCc2ccccc2[C@@H]1c1ccc(F)cc1)[C@H]1CN2CCC1CC2 [Compound 1131] | > 10 | – | –
11 | Cc1nc2cc([C@H]3c4ccccc4CCN3C(=O)O[C@@H]3CN4CCC3CC4)ccc2s1 [Compound 1132] | – | > 10 | –
12 | Cc1nc2cc([C@@H]3c4ccccc4CCN3C(=O)O[C@@H]3CN4CCC3CC4)ccc2s1 [Compound 1133] | – | 9.28 | –
13 | O=C(O[C@@H]1CN2CCC1CC2)N1CCc2ccccc2[C@@H]1COc1ccc(F)cc1 [Compound 1134] | – | – | EC50 [4]: > 10 µM
14 | O=C(O[C@@H]1CN2CCC1CC2)N1CCc2ccccc2[C@H]1COc1ccc(F)cc1 [Compound 1135] | – | – | EC50 [4]: > 10 µM
15 | O=S(=O)(C[C@@H]1CN2CCC1CC2)N1CCc2ccccc2[C@@H]1c1ccc(F)cc1 [Compound 1136] | 1.7 | – | –
16 | O=S(=O)(C[C@H]1CN2CCC1CC2)N1CCc2ccccc2[C@@H]1c1ccc(F)cc1 [Compound 1137] | 4.41 | – | –
17 | Cc1nc2ccc([C@H]3c4ccccc4CCN3C(=O)O[C@@H]3CN4CCC3CC4)cc2o1 [Compound 1138] | – | > 10 | –
18 | Cc1nc2ccc([C@@H]3c4ccccc4CCN3C(=O)O[C@@H]3CN4CCC3CC4)cc2o1 [Compound 1139] | – | > 10 | –
19 | O=S(=O)(C[C@@H]1CN2CCC1CC2)N1CCc2ccccc2[C@@H]1c1ccccc1 [Compound 1140] | > 10 | – | –
20 | O=S(=O)(C[C@@H]1CN2CCC1CC2)N1CCc2ccccc2[C@H]1c1ccccc1 [Compound 1141] | 3.36 | – | –
21 | O=S(=O)(C[C@H]1CN2CCC1CC2)N1CCc2ccccc2[C@@H]1c1ccccc1 [Compound 1142] | > 10 | – | –
22 | O=S(=O)(C[C@H]1CN2CCC1CC2)N1CCc2ccccc2[C@H]1c1ccccc1 [Compound 1143] | > 10 | – | –
23 | CC1(C)[C@@H](OC(=O)N2CCc3ccccc3[C@@H]2c2ccc(F)cc2)C2CCN1CC2 [Compound 1144] | – | – | EC50 [4]: > 10 µM
24 | CC1(C)[C@H](OC(=O)N2CCc3ccccc3[C@@H]2c2ccc(F)cc2)C2CCN1CC2 [Compound 1145] | – | – | EC50 [4]: 0.57 µM
25 | COCCOCCOCCNC(=O)c1ccc([C@H]2c3ccccc3CCN2C(=O)O[C@@H]2CN3CCC2CC3)cc1 [Compound 1146] | – | > 10 | –
26 | COCCOCCOCCNC(=O)c1ccc([C@@H]2c3ccccc3CCN2C(=O)O[C@@H]2CN3CCC2CC3)cc1 [Compound 1147] | – | > 10 | –
27 | CC1(C)[C@@H](OC(=O)N2CCc3ccccc3[C@@H]2c2cccc(F)c2F)C2CCN1CC2 [Compound 1148] | – | > 10 | –
28 | CC1(C)C(OC(=O)N2CCc3ccccc3[C@H]2c2cccc(F)c2F)C2CCN1CC2 (some centres unmarked) [Compound 1149] | – | 0.43 | –
29 | O=C(O[C@H]1CN2CCC1CC2)N1CCc2ccccc2[C@@H]1c1ccccc1 [Solifenacin, solifenacin, reference compound] | – | – | secretion of progranulin from mouse BV2 cells (mouse BV2 cells): causes the secretion of progranulin from mouse BV2 cells
